Test results from patent publication US9738697B2 (Wisconsin Alumni Research Foundation, priority 2013, dated 2017).

How the values were obtained:
chymotrypsin = molecular target: T1, chymotrypsin (Bos taurus, UniProt P00766); assay: Protease assay with chymotrypsin (HPLC); type: in vitro ADME; details: chymotrypsin in TBS; 40 μM peptide, 50 μg/mL chymotrypsin, TBS pH 8.0, room temperature; read-out: t1/2 with chymotrypsin (converted)
T1 construct: purchased Promega V1062
Description: An HPLC method from the literature was used to assess protease action on selected compounds.^29,31 Two nmol of solid peptide was dissolved in 40 μL of TBS pH 8.0 (resulting concentration of peptide=40 μM) before protease was added. Chymotrypsin was purchased from Promega (Fitchburg, Wis.; catalog #V1062), and neprilysin was purchased from Reprokine. Ltd. (Valley Cottage, N.Y.; catalog #RKP08473); stock solutions of 250 μg/mL chymotrypsin and 200 μg/mL neprilysin in water were prepared. A 10 μL aliquot of protease stock solution was added to 40 μL of 40 μM peptide solution to begin the reaction. Periodically, a 10 μL aliquot of the solution was removed, and protease action was halted by adding this aliquot to 100 μL of 1% aqueous TFA solution. A portion (100 μL) of the quenched solution was injected onto an HPLC column using the conditions described under “Peptide Synthesis”, and peaks were analyzed using MALDI-TOF MS. The time course of peptide degradation was experimentally determined by integrating the area of each peak in a series of HPLC traces. The area percent of parent peptide (relative to the initial trace) was calculated for each trace and plotted in GraphPad Prism as an exponential decay to determine half-life values.
ID. […] Major backbone cut sites are indicated with double front slashes. […] Digestion occurs at three major cleavage sites. […] ID. NO: 7 with 50 μg/mL chymotrypsin in TBS pH 8.0 at room temperature. […] ID. NO: 9 with 50 μg/mL chymotrypsin in TBS pH 8.0 at room temperature. This peptide has seven substitutions, α→Aib.

neprilysin = molecular target: T2, neprilysin (Homo sapiens, UniProt P08473); assay: Protease assay with neprilysin (HPLC); type: in vitro ADME; details: 40 μg/mL neprilysin
T2 construct: purchased Reprokine; Ltd. RKP08473
T2 sequence (P08473 whole entry): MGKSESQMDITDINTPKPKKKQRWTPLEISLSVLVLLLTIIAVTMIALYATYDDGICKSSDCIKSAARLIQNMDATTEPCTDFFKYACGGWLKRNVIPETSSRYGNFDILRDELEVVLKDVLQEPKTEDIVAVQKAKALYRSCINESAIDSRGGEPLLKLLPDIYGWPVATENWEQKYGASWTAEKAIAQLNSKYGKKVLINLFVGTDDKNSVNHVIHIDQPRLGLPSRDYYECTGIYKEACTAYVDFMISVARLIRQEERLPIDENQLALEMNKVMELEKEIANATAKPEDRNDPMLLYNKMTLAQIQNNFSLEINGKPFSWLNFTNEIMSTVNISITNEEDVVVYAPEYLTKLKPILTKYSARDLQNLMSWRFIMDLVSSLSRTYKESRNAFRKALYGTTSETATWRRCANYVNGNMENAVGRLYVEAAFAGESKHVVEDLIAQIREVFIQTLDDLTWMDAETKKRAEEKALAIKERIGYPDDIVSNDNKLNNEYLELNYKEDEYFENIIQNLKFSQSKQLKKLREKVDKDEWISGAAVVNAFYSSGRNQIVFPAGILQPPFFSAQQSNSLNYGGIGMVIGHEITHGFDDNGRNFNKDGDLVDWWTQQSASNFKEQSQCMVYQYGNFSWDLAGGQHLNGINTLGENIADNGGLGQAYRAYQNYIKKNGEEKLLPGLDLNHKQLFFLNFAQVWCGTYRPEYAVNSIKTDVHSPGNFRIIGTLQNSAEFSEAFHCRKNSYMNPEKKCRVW
Description: An HPLC method from the literature was used to assess protease action on selected compounds.^29,31 Two nmol of solid peptide was dissolved in 40 μL of TBS pH 8.0 (resulting concentration of peptide=40 μM) before protease was added. Chymotrypsin was purchased from Promega (Fitchburg, Wis.; catalog #V1062), and neprilysin was purchased from Reprokine. Ltd. (Valley Cottage, N.Y.; catalog #RKP08473); stock solutions of 250 μg/mL chymotrypsin and 200 μg/mL neprilysin in water were prepared. A 10 μL aliquot of protease stock solution was added to 40 μL of 40 μM peptide solution to begin the reaction. Periodically, a 10 μL aliquot of the solution was removed, and protease action was halted by adding this aliquot to 100 μL of 1% aqueous TFA solution. […] The time course of peptide degradation was experimentally determined by integrating the area of each peak in a series of HPLC traces. The area percent of parent peptide (relative to the initial trace) was calculated for each trace and plotted in GraphPad Prism as an exponential decay to determine half-life values.
Major backbone cut sites, as determined by MALDI-TOF-MS, are indicated with double front slashes.

human GLP-1 receptor = human GLP-1 receptor (Homo sapiens, UniProt P43220); assay: GLP-1R activation monitored by cAMP production in HEK293 cells
human GLP-1 receptor, sequence (P43220 24-463): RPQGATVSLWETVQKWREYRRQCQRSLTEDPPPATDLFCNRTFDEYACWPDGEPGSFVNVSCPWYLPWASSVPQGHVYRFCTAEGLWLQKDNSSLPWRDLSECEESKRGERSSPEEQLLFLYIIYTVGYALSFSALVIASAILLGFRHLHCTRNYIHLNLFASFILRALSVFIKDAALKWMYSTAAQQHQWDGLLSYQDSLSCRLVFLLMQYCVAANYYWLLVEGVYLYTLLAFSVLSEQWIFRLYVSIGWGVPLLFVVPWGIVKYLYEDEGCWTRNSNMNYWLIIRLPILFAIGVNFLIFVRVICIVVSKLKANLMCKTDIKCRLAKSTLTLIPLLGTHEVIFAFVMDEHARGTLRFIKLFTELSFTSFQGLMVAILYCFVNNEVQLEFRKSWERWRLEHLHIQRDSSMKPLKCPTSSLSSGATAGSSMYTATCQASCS

mouse pancreatic islets = assay: Islet cell insulin secretion assay (glucose-stimulated insulin secretion, insulin content); type: cell-based
Description: A critical physiological role of GLP-1 is to augment glucose-stimulated insulin secretion (GSIS) from pancreatic islet β cells. α/β-Peptide SEQ. ID. […] The results are depicted in FIG. 2.
ID. NO: 7. Approximately 100 medium sized islets were washed three times, placed in a sterile Petri dish, and incubated overnight in culture medium (RPMI 1640, with 11.1 mM glucose, antibiotics and 10% heat-inactivated fetal bovine serum). The following day, 50 islets were washed and transferred in […] of Krebs Ringer Buffer (KRB) to a Swinnex®-brand filter holder (EMD Millipore, Billerica, Mass.). The islets were sandwiched between two layers of Bio-Gel P-2 bead (Bio-Rad, Hercules, Calif.) solution (200 mg beads/mL in KRB; bottom layer, […] and top layer, […]). The Swinnex filter holder was attached in-line with a Minipuls®-brand pump (Gilson, Middleton, Wis.) and a FC 204 Fraction Collector (Gilson). Islets were perifused at the rate of 1 mL/min, and samples were collected at 30 sec intervals. Insulin content of the islets themselves and insulin secretion were determined by ELISA. […] ID. NO: 7.

C57BL/6J mice = assay: Glucose tolerance test (GTT) in mice; type: in vivo, mouse
Description: ID. NO: 7 was administered to mice by interperitoneal (i.p.) injection at a 1 mg/kg dose, or lower for SEQ. ID. NO: 7, using an injection volume of 10 mL/kg body mass. Each peptide was first dissolved in prefiltered DMSO at 10 mg/mL concentration, then diluted >20-fold with TBS buffer, pH 7.4 (final DMSO conc.=<5%). Glucose was administered by i.p. injection with a sterile-filtered 30% D-glucose-saline solution at a 1.5 g/kg dose using a 5 mL/kg injection volume.
Thirteen-week-old male C57BL/6J mice (The Jackson Laboratory) (n=4) were fasted overnight on wood chip bedding for 15 hours prior to the experiment. Blood glucose levels were monitored from a tail tip bleed using an ACCU-CHEK®-brand blood glucose meter (Roche Diagnostics, Indianapolis, Ind.). Fasting glucose levels were measured at 75 minutes prior to the glucose injection (t=−75 min), and the compound injection was performed 60 minutes prior to the glucose injection (t=−60 min). Glucose levels were measured immediately prior to the glucose injection (t=0 min) to assess any changes in the baseline glucose caused by peptide administration. Blood glucose levels were monitored at 30, 60, 90, and 120 minutes after injection of glucose.
Five hours after peptide injection, the mice received a second injection of 1.5 g/kg glucose. Blood glucose was monitored at 30 min after this second glucose injection. Mice were sacrificed by CO2 inhalation at the conclusion of the GTT.

CC[C@H](C)[C@H](NC(=O)[C@H](Cc1ccccc1)NC(=O)[C@H](CCC(=O)O)NC(=O)C(C)(C)NC(=O)[C@H](C)NC(=O)[C@H](C)NC(=O)[C@H](CCC(N)=O)NC(=O)C(C)(C)NC(=O)[C@H](CCC(=O)O)NC(=O)[C@H](CC(C)C)NC(=O)[C@H](Cc1ccc(O)cc1)NC(=O)C(C)(C)NC(=O)[C@H](CO)NC(=O)C(C)(C)NC(=O)[C@H](CC(=O)O)NC(=O)[C@H](CO)NC(=O)[C@@H](NC(=O)[C@H](Cc1ccccc1)NC(=O)[C@@H](NC(=O)CNC(=O)[C@H](CCC(=O)O)NC(=O)C(C)(C)NC(=O)[C@@H](N)Cc1c[nH]cn1)[C@@H](C)O)[C@@H](C)O)C(=O)NC(C)(C)C(=O)N[C@@H](Cc1c[nH]c2ccccc12)C(=O)N[C@@H](CC(C)C)C(=O)N[C@H](C(=O)NC(C)(C)C(=O)NCC(=O)N[C@@H](CCCNC(=N)N)C(=O)NCC(N)=O)C(C)C [SEQ. ID. NO: 9]
half-life (chymotrypsin): 2.25 min
number of major cleavage sites, neprilysin (neprilysin; MALDI-TOF-MS): six
half-life (neprilysin; neprilysin in TBS, pH 8, 40 μM peptide, TBS pH 8.0, room temperature, read-out: half-life (t1/2) with neprilysin (converted)): 8.3 h

CC[C@H](C)[C@H](NC(=O)[C@H](Cc1ccccc1)NC(=O)[C@H](CCC(=O)O)NC(=O)C1CCCC1NC(=O)[C@H](C)NC(=O)[C@H](C)NC(=O)[C@H](CCC(N)=O)NC(=O)C1CCCC1NC(=O)[C@H](CCC(=O)O)NC(=O)[C@H](CC(C)C)NC(=O)[C@H](Cc1ccc(O)cc1)NC(=O)C1CCCC1NC(=O)[C@H](CO)NC(=O)[C@@H](NC(=O)[C@H](CC(=O)O)NC(=O)C1CCCC1NC(=O)[C@@H](NC(=O)[C@H](Cc1ccccc1)NC(=O)[C@@H](NC(=O)CNC(=O)[C@H](CCC(=O)O)NC(=O)[C@H](C)NC(=O)[C@@H](N)Cc1c[nH]cn1)[C@@H](C)O)[C@@H](C)O)C(C)C)C(=O)NC1CCCC1C(=O)N[C@@H](Cc1c[nH]c2ccccc12)C(=O)N[C@@H](CC(C)C)C(=O)N[C@H](C(=O)NC1CNCC1C(=O)NCC(=O)N[C@@H](CCCNC(=N)N)C(=O)NCC(N)=O)C(C)C (some centres unmarked) [SEQ. ID. NO: 6, H-HAEGTFTXDVSXYLEXQAAXEFIXWLVZGRG-NH2]
EC50 (human GLP-1 receptor): > 0.1 µM
cAMP production at 100 nM (in words) (human GLP-1 receptor; 100 nM peptide): only a small amount of cAMP production
cAMP production, AVERAGES at M Concentrations −7 (human GLP-1 receptor; peptide concentration −7 (log M)): 100
cAMP production, AVERAGES at M Concentrations −8 (human GLP-1 receptor; peptide concentration −8 (log M)): 99.2328
cAMP production, AVERAGES at M Concentrations −9 (human GLP-1 receptor; peptide concentration −9 (log M)): 42.7672
cAMP production, AVERAGES at M Concentrations −10 (human GLP-1 receptor; peptide concentration −10 (log M)): 18.05
cAMP production, AVERAGES at M Concentrations −12 (human GLP-1 receptor; peptide concentration −12 (log M)): 5.688
cAMP production, AVERAGES at M Concentrations −13 (human GLP-1 receptor; peptide concentration −13 (log M)): 5.688

CC[C@H](C)[C@H](NC(=O)[C@H](Cc1ccccc1)NC(=O)[C@H](CCC(=O)O)NC(=O)[C@H](CCCCN)NC(=O)[C@H](C)NC(=O)[C@H](C)NC(=O)[C@H](CCC(N)=O)NC(=O)CNC(=O)[C@H](CCC(=O)O)NC(=O)[C@H](CC(C)C)NC(=O)[C@H](Cc1ccc(O)cc1)NC(=O)[C@H](CO)NC(=O)[C@H](CO)NC(=O)C(C)(C)NC(=O)[C@H](CC(=O)O)NC(=O)[C@H](CO)NC(=O)[C@@H](NC(=O)[C@H](Cc1ccccc1)NC(=O)[C@@H](NC(=O)CNC(=O)[C@H](CCC(=O)O)NC(=O)[C@H](C)NC(=O)[C@@H](N)Cc1c[nH]cn1)[C@@H](C)O)[C@@H](C)O)C(=O)N[C@@H](C)C(=O)N[C@@H](Cc1c[nH]c2ccccc12)C(=O)N[C@@H](CC(C)C)C(=O)N[C@H](C(=O)N[C@@H](CCCCN)C(=O)NCC(=O)N[C@@H](CCCNC(=N)N)C(=O)NCC(N)=O)C(C)C [SEQ. ID. NO: 14]
agonist character at GLP-1R (in words) (human GLP-1 receptor; cAMP production): native-like efficacy and potency

CC[C@H](C)[C@H](NC(=O)[C@H](Cc1ccccc1)NC(=O)[C@H](CCC(=O)O)NC(=O)[C@H](CCCCN)NC(=O)[C@H](C)NC(=O)[C@H](C)NC(=O)[C@H](CCC(N)=O)NC(=O)CNC(=O)[C@H](CCC(=O)O)NC(=O)[C@H](CC(C)C)NC(=O)[C@H](Cc1ccc(O)cc1)NC(=O)[C@H](CO)NC(=O)[C@H](CO)NC(=O)[C@@H](NC(=O)[C@H](CC(=O)O)NC(=O)[C@H](CO)NC(=O)[C@@H](NC(=O)[C@H](Cc1ccccc1)NC(=O)[C@@H](NC(=O)CNC(=O)[C@H](CCC(=O)O)NC(=O)[C@H](C)NC(=O)[C@@H](N)Cc1c[nH]cn1)[C@@H](C)O)[C@@H](C)O)C(C)C)C(=O)N[C@@H](C)C(=O)N[C@@H](Cc1c[nH]c2ccccc12)C(=O)N[C@@H](CC(C)C)C(=O)N[C@H](C(=O)N[C@@H](CCCCN)C(=O)NCC(=O)N[C@@H](CCCNC(=N)N)C(N)=O)C(C)C [GLP-1(7-36)-NH2]
increase in glucose-stimulated insulin secretion (GSIS) (mouse pancreatic islets; freshly isolated mouse islets, 90 nM agonist): ~2 fold

GLP-1: glucagon-like peptide-1; used loosely for GLP-1(7-36)-NH2 (Tables 3, 5) or GLP-1(7-37)-NH2
Insulin Content average (ng/3 islets) (mouse pancreatic islets; high glucose + 3 nM peptide): 522.1 ng/3 islets
Insulin Content average (ng/3 islets) (mouse pancreatic islets; high glucose + 10 nM peptide): 496.4 ng/3 islets
Insulin Content average (ng/3 islets) (mouse pancreatic islets; high glucose + 30 nM peptide): 458.6 ng/3 islets
Insulin Content average (ng/3 islets) (mouse pancreatic islets; high glucose + 90 nM peptide): 463.1 ng/3 islets

Exendin-4: GLP-1R agonist found in the saliva of the Gila monster (39 residues), active agent in exenatide; purchased from Anaspec
rise of glucose relative to vehicle-treated mice during the GTT (in words) (C57BL/6J mice; 1 mg/kg): dramatic suppression
Average Blood Glucose Level (C57BL/6J mice; 1 mg/kg i.p., time 0.0 min): 89.5 mg/dL
Average Blood Glucose Level (C57BL/6J mice; 1 mg/kg i.p., time 30.0 min): 123.5 mg/dL
Average Blood Glucose Level (C57BL/6J mice; 1 mg/kg i.p., time 60.0 min): 87.0 mg/dL
Average Blood Glucose Level (C57BL/6J mice; 1 mg/kg i.p., time 90.0 min): 67.5 mg/dL
Average Blood Glucose Level (C57BL/6J mice; 1 mg/kg i.p., time 120.0 min): 70.0 mg/dL
Average Blood Glucose Level (C57BL/6J mice; 1 mg/kg i.p., time −60.0 min (peptide injection)): 118.0 mg/dL
Average Blood Glucose Level at 30 min (column head AUC) (C57BL/6J mice; 1 mg/kg i.p., Table 7, 30 min after second glucose injection given five hours after peptide): 118.8
glucose-lowering effect in GTT repeated 5 hours after agonist administration (in words) (C57BL/6J mice; 1 mg/kg, 30 min after the second glucose challenge): maintained
